Test results from patent US5051403A (priority 1989, dated 1991).
Where “and” joins values, the source holds several entries; their conditions need not be identical. Equal values may be shown once. Bridge positions count the residues as written; N and C are the ends. Square brackets hold non-standard residues; d marks the D form. Ends that are not written are not given here. Peptide text beside a SMILES is read from it. * marks the point of attachment. Hyp = O=C(O)[C@@H]1C[C@@H](O)CN1; Acm = CC(=O)NC*

Molecular target: OCT binding sites, elasmobranch electric organ synaptosomes (Diplobatis ommata, UniProt P56698)
Assay: biochemical
Design: species or system Ommata dyscopyge (marine electric ray)
Conditions: pKi

OCT binding sites, elasmobranch electric organ synaptosomes, sequence (P56698 whole entry, looked up): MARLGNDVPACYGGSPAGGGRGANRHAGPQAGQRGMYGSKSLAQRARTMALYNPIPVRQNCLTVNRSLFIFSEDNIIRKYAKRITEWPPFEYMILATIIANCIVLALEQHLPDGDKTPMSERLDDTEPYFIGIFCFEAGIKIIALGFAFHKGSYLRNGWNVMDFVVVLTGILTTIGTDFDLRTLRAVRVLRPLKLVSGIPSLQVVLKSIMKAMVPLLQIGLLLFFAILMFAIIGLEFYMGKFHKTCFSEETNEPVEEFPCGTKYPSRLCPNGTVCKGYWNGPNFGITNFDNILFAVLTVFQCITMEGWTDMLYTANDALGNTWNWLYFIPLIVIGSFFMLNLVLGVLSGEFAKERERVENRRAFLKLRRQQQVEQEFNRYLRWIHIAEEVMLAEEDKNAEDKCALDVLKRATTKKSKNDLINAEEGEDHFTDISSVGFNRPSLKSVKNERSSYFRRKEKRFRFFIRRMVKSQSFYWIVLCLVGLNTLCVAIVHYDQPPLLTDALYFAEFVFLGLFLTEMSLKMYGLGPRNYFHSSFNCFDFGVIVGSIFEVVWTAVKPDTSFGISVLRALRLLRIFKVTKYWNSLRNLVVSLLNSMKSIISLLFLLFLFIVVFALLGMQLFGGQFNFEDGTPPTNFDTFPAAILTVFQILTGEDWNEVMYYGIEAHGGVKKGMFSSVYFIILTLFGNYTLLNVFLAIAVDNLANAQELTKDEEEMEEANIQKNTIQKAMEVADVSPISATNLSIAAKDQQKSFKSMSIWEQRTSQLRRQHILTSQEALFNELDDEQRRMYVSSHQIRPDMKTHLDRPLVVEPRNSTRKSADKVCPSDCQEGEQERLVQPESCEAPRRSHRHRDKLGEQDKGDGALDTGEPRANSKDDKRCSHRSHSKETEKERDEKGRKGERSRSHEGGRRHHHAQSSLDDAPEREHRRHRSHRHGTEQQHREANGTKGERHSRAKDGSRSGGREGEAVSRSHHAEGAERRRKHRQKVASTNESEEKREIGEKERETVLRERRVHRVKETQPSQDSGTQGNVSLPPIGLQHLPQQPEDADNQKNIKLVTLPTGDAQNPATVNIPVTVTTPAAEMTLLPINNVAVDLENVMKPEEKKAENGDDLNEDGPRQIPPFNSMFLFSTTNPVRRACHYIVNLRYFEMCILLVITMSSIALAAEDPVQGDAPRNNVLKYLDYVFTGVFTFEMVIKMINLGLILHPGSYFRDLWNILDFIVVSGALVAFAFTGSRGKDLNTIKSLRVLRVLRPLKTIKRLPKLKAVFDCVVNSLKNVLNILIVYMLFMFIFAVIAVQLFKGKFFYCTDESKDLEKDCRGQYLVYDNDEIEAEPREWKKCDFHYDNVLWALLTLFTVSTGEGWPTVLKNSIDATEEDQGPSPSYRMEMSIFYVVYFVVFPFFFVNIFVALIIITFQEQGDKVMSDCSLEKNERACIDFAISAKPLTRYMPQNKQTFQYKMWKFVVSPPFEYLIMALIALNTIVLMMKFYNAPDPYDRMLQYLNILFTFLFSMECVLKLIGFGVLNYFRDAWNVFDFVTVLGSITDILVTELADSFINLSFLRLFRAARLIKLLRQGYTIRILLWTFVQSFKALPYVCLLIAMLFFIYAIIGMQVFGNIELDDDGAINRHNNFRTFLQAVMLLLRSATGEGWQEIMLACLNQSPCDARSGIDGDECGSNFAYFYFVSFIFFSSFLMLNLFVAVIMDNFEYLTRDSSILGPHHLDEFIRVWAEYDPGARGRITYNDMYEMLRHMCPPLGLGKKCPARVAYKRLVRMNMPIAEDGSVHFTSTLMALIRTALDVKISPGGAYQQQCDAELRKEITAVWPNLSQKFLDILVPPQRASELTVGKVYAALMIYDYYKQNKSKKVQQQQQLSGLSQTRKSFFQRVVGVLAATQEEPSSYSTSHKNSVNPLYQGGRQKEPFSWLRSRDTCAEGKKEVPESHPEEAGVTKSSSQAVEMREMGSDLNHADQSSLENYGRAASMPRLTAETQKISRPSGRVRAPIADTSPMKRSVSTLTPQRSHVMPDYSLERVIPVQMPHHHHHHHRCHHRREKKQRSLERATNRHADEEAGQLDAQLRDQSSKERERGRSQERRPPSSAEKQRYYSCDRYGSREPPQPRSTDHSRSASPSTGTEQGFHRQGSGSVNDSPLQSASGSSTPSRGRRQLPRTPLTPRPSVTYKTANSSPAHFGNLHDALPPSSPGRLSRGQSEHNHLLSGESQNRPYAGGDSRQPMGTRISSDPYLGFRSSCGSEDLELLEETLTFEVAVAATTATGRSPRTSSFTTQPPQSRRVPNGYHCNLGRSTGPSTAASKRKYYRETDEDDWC

Row | Compound | Ki
1 | CSCC[C@@H]1NC(=O)[C@H](CC(C)C)NC(=O)[C@H](CCCNC(=N)N)NC(=O)[C@H](CO)NC(=O)[C@H](CSCNC(C)=O)NC(=O)[C@H](CCCCN)NC(=O)[C@H](C)NC(=O)CNC(=O)[C@H](CCCCN)NC(=O)CNC(=O)[C@H](CCCCN)NC(=O)[C@@H](N)CSSC[C@@H](C(N)=O)NC(=O)[C@H](CSCNC(C)=O)NC(=O)[C@H](CC(=O)O)NC(=O)[C@H](Cc2ccc(O)cc2)NC1=O [MVIIA 163] | 219 µM
2 | CSCC[C@@H]1NC(=O)[C@H](CC(C)C)NC(=O)[C@H](CCCNC(=N)N)NC(=O)[C@H](CO)NC(=O)[C@@H]2CSSC[C@H](NC(=O)[C@H](CC(=O)O)NC(=O)[C@H](Cc3ccc(O)cc3)NC1=O)C(=O)N[C@H](C(N)=O)CSSC[C@H](N)C(=O)N[C@@H](CCCCN)C(=O)NCC(=O)N[C@@H](CCCCN)C(=O)NCC(=O)N[C@@H](C)C(=O)N[C@@H](CCCCN)C(=O)N2 [MVIIA 172] | 20.9 µM
3 | CC(=O)NCSC[C@@H]1NC(=O)[C@H](CCCCN)NC(=O)[C@H](C)NC(=O)CNC(=O)[C@H](CCCCN)NC(=O)CNC(=O)[C@H](CCCCN)NC(=O)[C@@H](N)CSSC[C@@H](C(N)=O)NC(=O)[C@H](CCCCN)NC(=O)CNC(=O)[C@H](CO)NC(=O)[C@H](CCCNC(=N)N)NC(=O)[C@H](CSCNC(C)=O)NC1=O [MVIIA 162] (H-CKGKGAKC(Acm)C(Acm)RSGKC-NH2; disulfide 1-14) | < 1 µM and 0.17 µM
4 | C[C@@H]1NC(=O)[C@H](C)NC(=O)[C@H](CO)NC(=O)[C@H](CO)NC(=O)CNC(=O)[C@@H]2C[C@@H](O)CN2C(=O)[C@H](CO)NC(=O)[C@H](CCCCN)NC(=O)[C@@H](N)CSSC[C@@H](C(=O)N[C@@H](Cc2ccc(O)cc2)C(N)=O)NC(=O)[C@H](CCCNC(=N)N)NC(=O)[C@H](CCCCN)NC(=O)[C@H]([C@@H](C)O)NC(=O)[C@H](Cc2ccc(O)cc2)NC(=O)[C@@H]2C[C@@H](O)CN2C(=O)[C@H](CC(N)=O)NC1=O [GVIA 180] (H-CKS[Hyp]GSSAAN[Hyp]YTKRCY-NH2; disulfide 1-16) | 123 µM
5 | CSCC[C@@H]1NC(=O)[C@H](CC(C)C)NC(=O)[C@H](CCCNC(=N)N)NC(=O)[C@H](CO)NC(=O)[C@H](C)NC(=O)[C@H](CCCCN)NC(=O)[C@H](C)NC(=O)CNC(=O)[C@H](CCCCN)NC(=O)CNC(=O)[C@H](CCCCN)NC(=O)[C@@H](N)CSSC[C@@H](C(N)=O)NC(=O)[C@H](C)NC(=O)[C@H](CC(=O)O)NC(=O)[C@H](Cc2ccc(O)cc2)NC1=O [MVIIA 171] (H-CKGKGAKASRLMYDAC-NH2; disulfide 1-16) | 4.68 µM
6 | C[C@@H]1NC(=O)[C@H](CO)NC(=O)[C@H](CO)NC(=O)CNC(=O)[C@@H]2C[C@@H](O)CN2C(=O)[C@H](CO)NC(=O)[C@H](CCCCN)NC(=O)[C@@H](N)CSSC[C@@H](C(N)=O)NC(=O)[C@H](C)NC(=O)[C@H](CC(N)=O)NC(=O)[C@H](Cc2ccc(O)cc2)NC(=O)[C@H](CO)NC(=O)[C@H]([C@@H](C)O)NC(=O)[C@@H]2C[C@@H](O)CN2C(=O)[C@H](CO)NC1=O [GVIA 177] (H-CKS[Hyp]GSSAS[Hyp]TSYNAC-NH2; disulfide 1-16) | > 1000 µM
7 | CSCC[C@@H]1NC(=O)[C@H](CC(C)C)NC(=O)[C@H](CCCNC(=N)N)NC(=O)[C@H](CO)NC(=O)[C@@H](N)CSSC[C@@H](C(N)=O)NC(=O)[C@H](CO)NC(=O)CNC(=O)[C@H]([C@@H](C)O)NC(=O)[C@H](CSCNC(C)=O)NC(=O)[C@H](CSCNC(C)=O)NC(=O)[C@H](CC(=O)O)NC(=O)[C@H](Cc2ccc(O)cc2)NC1=O [MVIIA 161] (H-CSRLMYDC(Acm)C(Acm)TGSC-NH2; disulfide 1-13) | > 1000 µM
8 | C[C@@H]1NC(=O)[C@H](C)NC(=O)[C@H](CCCCN)NC(=O)[C@H](CO)NC(=O)CNC(=O)[C@H](CCCCN)NC(=O)[C@H](CO)NC(=O)[C@H](CCCCN)NC(=O)[C@@H](N)CSSC[C@@H](C(N)=O)NC(=O)[C@H](CCCCN)NC(=O)CNC(=O)[C@H](CO)NC(=O)[C@H](CCCNC(=N)N)NC1=O [MVIIA 176] (H-CKSKGSKAARSGKC-NH2; disulfide 1-14) | 1.82 µM
9 | C[C@@H]1NC(=O)CNC(=O)[C@H](CCCCN)NC(=O)CNC(=O)[C@H](CCCCN)NC(=O)[C@@H](N)CSSC[C@@H](C(=O)N[C@@H](CO)C(=O)N[C@@H](CCCNC(=N)N)C(N)=O)NC(=O)[C@H](CCCCN)NC1=O [MVIIA 170] | < 1 µM and 0.282 µM
10 | AKGKGAKASR-NH2 [MVIIA 174] | < 1 µM and 0.525 µM
11 | C[C@@H]1NC(=O)CNC(=O)[C@H](CCCCN)NC(=O)CNC(=O)[C@H](CCCCN)NC(=O)[C@@H](N)CSSC[C@@H](C(N)=O)NC(=O)[C@H](CCCCN)NC(=O)CNC(=O)[C@H](CO)NC(=O)[C@H](CCCNC(=N)N)NC(=O)[C@H](C)NC(=O)[C@H](C)NC(=O)[C@H](CCCCN)NC1=O [MVIIA 175] (H-CKGKGAKAARSGKC-NH2; disulfide 1-14) | 3.63 µM
12 | CC(=O)NCSC[C@@H]1NC(=O)[C@H](CO)NC(=O)CNC(=O)[C@H]([C@@H](C)O)NC(=O)[C@H](CSCNC(C)=O)NC(=O)[C@@H](N)CSSC[C@@H](C(N)=O)NC(=O)[C@H](CCCCN)NC(=O)CNC(=O)[C@H](CO)NC(=O)[C@H](CCCNC(=N)N)NC1=O [MVIIA 160] | 120 µM
